{"source": "patent US7422862B2", "about": "“Methods for identifying modulators of apoptosis” (The Burnham Institute, priority 2001, dated 2008)", "key": {"[1]": {"test_system": "Bax", "experiment": "Bax-induced lethality in yeast", "format": "cell-based, S. cerevisiae", "conditions": "TAD-fusion polypeptide, galactose-induced Bax"}, "[2]": {"test_system": "endogenous Bax protein", "experiment": "Subcellular fractionation and immunoblot of endogenous Bax after STS", "format": "cell-based", "conditions": "Cos7 cells, untagged peptides, STS", "description": "(A-B) Humanin peptide prevents STS-induced Bax translocation in vivo. Cos-7 cells were first transfected with GFP-Bax plasmids. After 24 hrs, untagged wild-type or C8P mutant Humanin peptides were introduced into cells using ChariotTM reagent, and 2 h later cells were treated with 1 μM STS. After 4 h, the percentage of cells with translocated Bax was determined (mean±SD; n=3) by confocal microscopy (A) and representative photomicrographs (B). (C) Wild-type or C8P mutant Humanin peptides were introduced into Cos7 cells using ChariotTM reagent. Cytosolic (C) and mitochondria-containing (M) fractions were isolated by differential centrifugation 23 and analyzed by immunoblotting using anti-Bax (top), Hsp60 (middle) (mitochondrial marker), or Tubulin (bottom) (cytosol marker) antibodies. (D) HN or mutant control double-strand siRNAs were transfected into SF268 cells. After 48 h, cells were cultured without (Control) or with 0.1 uM STS. After 24 hr, cells were fractionated and analyzed by immunoblotting as above. […] After 3 h at 30° C., mitochondria were centrifuged and the resulting pellets (P) and supernatants (S) were analyzed by immunoblotting using anti-Cytochrome c (top), Hsp60 (middle), and Bax (bottom) antibodies. […]\nThese findings were also confirmed by subcellular fractionation, where cytosol and mitochondria-enriched heavy membrane preparations were prepared from Cos7 cells transduced with untagged Humanin or Humanin(C8P) peptides, and the relative amounts of endogenous Bax protein in these two fractions were measured by immunoblot analysis of samples normalized for cell-equivalents. […] Differences in the relative potency of Humanin at blocking Bax translocation as measured by microscopy (FIG. 7A) versus cell fractionation methods (FIG. 7C) can be explained by differences in the sensitivity of the assays, or could possibly indicate that even in cells where some Bax translocation has occurred, less of the total Bax protein associated with mitochondria. […]"}, "[3]": {"target": "T1, t-Bid (Homo sapiens, UniProt P55957)", "T1 sequence (P55957 61-195 limits assumed)": "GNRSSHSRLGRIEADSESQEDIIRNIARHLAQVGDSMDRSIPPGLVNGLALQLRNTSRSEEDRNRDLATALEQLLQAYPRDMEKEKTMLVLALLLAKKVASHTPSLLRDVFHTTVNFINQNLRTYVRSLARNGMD", "experiment": "Co-immunoprecipitation of Humanin with t-Bid in 293T cells", "format": "binding", "design": "expressed in transfected cells", "description": "The lysates were immunoprecipitated with (A) anti-GFP antibody or (B) anti-tBid antibody and blotted with (A) anti-HA antibody or (B) anti-GFP antibody. The data shown were obtained using the cytosolic form of Humanin; however, both cytosolic and mitochondrial forms of Humanin were tested and the results were the same.\nThe following experiments confirm an interaction between Humanin and Bax. Similar experiments were performed to confirm an interaction between Humanin and Bid."}, "[4]": {"target": "T1, t-Bid", "experiment": "Bid-induced apoptosis in CSM14.1 cells (DAPI staining)", "format": "cell-based", "design": "expressed in transfected cells; host or cells: CSM14.1 rat hippocampal neuronal cells", "conditions": "24 hours after transfection", "description": "Apoptosis was examined by DAPI staining. The data shown were obtained using the cytosolic form of Humanin; however, both cytosolic and mitochondrial forms of Humanin were tested and the results were the same.\nRat neuronal cell line CSM14.1 cells were transfected with various plasmids using the Lipofectamine reagent (Invitrogen). For transfection, 10×10^5 cells were plated per well using 6 well plates. Each well received 1 μg DNA plus […] of Lipofectamine. After 24 hours of transfection, the percentage of cell death was determined using 4′-6-diamidino-2-phenylindole (DAPI) staining. […] The data shown were obtained using the cytosolic form of Humanin; however, both cytosolic and mitochondrial forms of Humanin were tested and the results were the same."}}, "data": [{"substance": "Humanin: 24 amino acid polypeptide, cytosolic form of human Humanin (SEQ ID NO:2); used as synthetic peptide or expressed fusion", "values": [{"measurement": "rescue of yeast from Bax-induced lethality", "setting": "[1]", "value": "rescued"}, {"measurement": "Bax translocation by subcellular fractionation", "setting": "[2]", "value": "reduced"}, {"measurement": "interaction with t-Bid by co-immunoprecipitation", "setting": "[3]", "value": "found to interact"}, {"measurement": "Bid-induced apoptosis", "setting": "[4]", "value": "decreased"}]}]}
